Experimental findings from patent US20250115600A1, “COVALENT MODIFIERS OF AKT1 AND USES THEREOF” (Terremoto Biosciences, Inc., priority 2022, published 2025) are described below.

What all share (assay): Live cell target engagement (NanoBRET) in HEK293 cells
Holding throughout (type): cell-based

In one assay the target is AKT2 (Homo sapiens (Human), UniProt P31751). The settings on record: HEK293, 2 hours at 37° C.
The target of a further assay is AKT1 E17K (Homo sapiens (Human), UniProt P31749, E17K). The settings on record: for IC50: HEK293, 2 hours at 37° C.
The next assay concerns the target AKT1 WT (Homo sapiens (Human), UniProt P31749). The following applies: HEK293, 2 hours at 37° C.

AKT1 E17K, sequence (P31749 whole entry E17K): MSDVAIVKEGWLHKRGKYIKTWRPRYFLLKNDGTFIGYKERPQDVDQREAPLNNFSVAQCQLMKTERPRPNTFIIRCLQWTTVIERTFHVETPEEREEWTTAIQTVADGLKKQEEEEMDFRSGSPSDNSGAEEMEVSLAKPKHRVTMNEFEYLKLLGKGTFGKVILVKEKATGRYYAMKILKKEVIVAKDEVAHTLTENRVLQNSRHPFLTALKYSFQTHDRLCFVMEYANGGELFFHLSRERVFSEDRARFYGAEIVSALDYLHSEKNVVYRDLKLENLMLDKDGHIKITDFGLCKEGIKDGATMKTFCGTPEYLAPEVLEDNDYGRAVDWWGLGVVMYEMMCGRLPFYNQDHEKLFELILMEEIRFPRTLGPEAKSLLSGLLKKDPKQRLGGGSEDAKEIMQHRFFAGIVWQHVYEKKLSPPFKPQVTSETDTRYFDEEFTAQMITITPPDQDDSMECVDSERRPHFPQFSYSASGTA
AKT1 WT, sequence (P31749 whole entry): as the sequence (P31749 whole entry E17K) above, with K17E counted along it
AKT2, sequence (P31751 whole entry): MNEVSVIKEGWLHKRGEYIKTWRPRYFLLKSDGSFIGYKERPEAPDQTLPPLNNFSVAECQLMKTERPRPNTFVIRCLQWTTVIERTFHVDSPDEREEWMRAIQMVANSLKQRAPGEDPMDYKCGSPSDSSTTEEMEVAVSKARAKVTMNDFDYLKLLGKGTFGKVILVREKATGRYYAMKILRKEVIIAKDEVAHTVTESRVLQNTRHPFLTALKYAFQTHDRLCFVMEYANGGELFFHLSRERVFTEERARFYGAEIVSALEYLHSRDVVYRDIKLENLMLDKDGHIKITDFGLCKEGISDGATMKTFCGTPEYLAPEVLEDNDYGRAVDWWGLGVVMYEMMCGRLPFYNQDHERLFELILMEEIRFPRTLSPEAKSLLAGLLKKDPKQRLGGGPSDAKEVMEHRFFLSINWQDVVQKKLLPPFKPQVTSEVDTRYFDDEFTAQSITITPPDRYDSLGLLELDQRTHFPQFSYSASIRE

In the case of `Cc1ccc2nc(-c3cccnc3N)n(-c3ccc(CNC(=O)Cc4ccc(C=O)c(O)c4)cc3)c2n1` [Compound 24, N-({4-[2-(2-aminopyridin-3-yl)-5-methylimidazo[4,5-b]pyridin-3-yl]phenyl}methyl)-2-(4-formyl-3-hydroxyphenyl)acetamide], the IC50 on AKT2 is more than 500 nM. Further, on AKT1 E17K, the “AKT1 E17K IC50: Selectivity vs AKT1 WT” value worked out at 4.3, the “AKT1 E17K IC50: Selectivity vs AKT2” value stood at 210 and the IC50 was less than 100 nM. Besides, at AKT1 WT, the IC50 was less than 100 nM.

Consider `Nc1ncccc1-c1nc2ccc(NC3CC3)nc2n1-c1ccc(CNC(=O)Cc2ccc(C=O)c(O)c2)cc1` [Compound 25, N-({4-[2-(2-aminopyridin-3-yl)-5-(cyclopropylamino)imidazo[4,5-b]pyridin-3-yl]phenyl}methyl)-2-(4-formyl-3-hydroxyphenyl)acetamide], for which the IC50 was more than 500 nM against AKT2, less than 100 nM at AKT1 E17K and less than 100 nM against AKT1 WT. Moreover, at AKT1 E17K, the “AKT1 E17K IC50: Selectivity vs AKT1 WT” value turned out to be 4.3. Also, the “AKT1 E17K IC50: Selectivity vs AKT2” value on AKT1 E17K is recorded as 120.

As for `Nc1ncccc1-c1nc2ccc(C3CC3)nc2n1-c1ccc(CNC(=O)C(F)c2ccc(C=O)c(O)c2)cc1` (centres unmarked) [Compound 26, N-({4-[2-(2-aminopyridin-3-yl)-5-cyclopropylimidazo[4,5-b]pyridin-3-yl]phenyl}methyl)-2-fluoro-2-(4-formyl-3-hydroxyphenyl)acetamide], the IC50 against AKT2 is more than 500 nM. On AKT1 E17K, the “AKT1 E17K IC50: Selectivity vs AKT1 WT” value stood at 2.4, the “AKT1 E17K IC50: Selectivity vs AKT2” value is 190 and the IC50 is less than 100 nM. Also, on AKT1 WT, the IC50 was less than 100 nM.

With `Nc1ncccc1-c1nc2ccc(C3CC3)nc2n1-c1ccc(CNC(=O)c2ccc(O)c(C=O)c2)cc1` [Compound 27, N-({4-[2-(2-aminopyridin-3-yl)-5-cyclopropylimidazo[4,5-b]pyridin-3-yl]phenyl}methyl)-3-formyl-4-hydroxybenzamide], the IC50 against AKT2 is more than 500 nM. Besides, at AKT1 E17K, the “AKT1 E17K IC50: Selectivity vs AKT1 WT” value is given as 3.8, the “AKT1 E17K IC50: Selectivity vs AKT2” value turned out to be 110 and the IC50 is less than 100 nM. On AKT1 WT, the IC50 is 100 to 500 nM.

Take `Nc1ncccc1-c1nc2ccc(-c3ccccc3)nc2n1-c1ccc(NC(=O)Cc2ccc(O)c(C=O)c2)cc1` [Compound 28, N-{4-[2-(2-aminopyridin-3-yl)-5-phenylimidazo[4,5-b]pyridin-3-yl]phenyl}-2-(3-formyl-4-hydroxyphenyl)acetamide]: the values for the IC50 against AKT2, on AKT1 E17K and on AKT1 WT were 100 to 500 nM, less than 100 nM and less than 100 nM, respectively. Further, on AKT1 E17K, the “AKT1 E17K IC50: Selectivity vs AKT1 WT” value is reported as 1.3. The “AKT1 E17K IC50: Selectivity vs AKT2” value on AKT1 E17K was found to be 17.

At AKT2, `Nc1ncccc1-c1nc2ccc(-c3ccccc3)nc2n1-c1ccc(C(=O)NCc2ccc(O)c(C=O)c2)cc1` [Compound 29, 4-(2-(2-aminopyridin-3-yl)-5-phenyl-3H-imidazo[4,5-b]pyridin-3-yl)-N-(3-formyl-4-hydroxybenzyl)benzamide] yielded an IC50 of 100 to 500 nM. In addition, at AKT1 E17K, the “AKT1 E17K IC50: Selectivity vs AKT1 WT” value was 3, the “AKT1 E17K IC50: Selectivity vs AKT2” value is recorded as 23 and the IC50 is less than 100 nM. This compound also showed an IC50 at AKT1 WT of less than 100 nM.

At AKT2, `Nc1ncccc1-c1nc2ccc(-c3ccccc3)nc2n1-c1ccc(C(CO)NC(=O)Cc2ccc(C=O)c(O)c2F)cc1` (centres unmarked) [Compound 30, N-(1-(4-(2-(2-aminopyridin-3-yl)-5-phenyl-3H-imidazo[4,5-b]pyridin-3-yl)phenyl)-2-hydroxyethyl)-2-(2-fluoro-4-formyl-3-hydroxyphenyl)acetamide] came in with an IC50 of more than 500 nM. Further, at AKT1 E17K, the “AKT1 E17K IC50: Selectivity vs AKT1 WT” value is given as 1.9, the “AKT1 E17K IC50: Selectivity vs AKT2” value stood at 6.2 and the IC50 was less than 100 nM. The IC50 against AKT1 WT is 100 to 500 nM.

For the compound `Cn1cc(-c2ccc3nc(-c4cccnc4N)n(-c4ccc(CNC(=O)Cc5ccc(C=O)c(O)c5)cc4)c3n2)cn1` [Compound 32, N-({4-[2-(2-aminopyridin-3-yl)-5-(1-methylpyrazol-4-yl)imidazo[4,5-b]pyridin-3-yl]phenyl}methyl)-2-(4-formyl-3-hydroxyphenyl)acetamide], the IC50 on AKT2 was more than 500 nM; at AKT1 E17K, less than 100 nM; at AKT1 WT, 100 to 500 nM. In addition, the “AKT1 E17K IC50: Selectivity vs AKT1 WT” value at AKT1 E17K is listed as 9. The “AKT1 E17K IC50: Selectivity vs AKT2” value on AKT1 E17K is recorded as 110.

In turn, `COc1ccc2nc(-c3cccnc3N)n(-c3ccc(CNC(=O)Cc4ccc(C=O)c(O)c4)cc3)c2n1` [Compound 33, N-(4-(2-(2-aminopyridin-3-yl)-5-methoxy-3H-imidazo[4,5-b]pyridin-3-yl)benzyl)-2-(4-formyl-3-hydroxyphenyl)acetamide] displayed an IC50 at AKT2 of more than 500 nM. Further, on AKT1 E17K, the “AKT1 E17K IC50: Selectivity vs AKT1 WT” value worked out at 23, the “AKT1 E17K IC50: Selectivity vs AKT2” value was determined as 400 and the IC50 was less than 100 nM. Further, at AKT1 WT, the IC50 lay within 100 to 500 nM.

On AKT2, `Nc1ncccc1-c1nc2ccc(-c3ccnc(N4CCOCC4)c3)nc2n1-c1ccc(CNC(=O)Cc2ccc(C=O)c(O)c2)cc1` [Compound 34, N-({4-[2-(2-aminopyridin-3-yl)-5-[2-(morpholin-4-yl)pyridin-4-yl]imidazo[4,5-b]pyridin-3-yl]phenyl}methyl)-2-(4-formyl-3-hydroxyphenyl)acetamide] yielded an IC50 of more than 500 nM. Besides, at AKT1 E17K, the “AKT1 E17K IC50: Selectivity vs AKT1 WT” value is 10, the “AKT1 E17K IC50: Selectivity vs AKT2” value worked out at 40 and the IC50 was less than 100 nM. This compound showed an IC50 on AKT1 WT of 100 to 500 nM.

The compound `Nc1ncccc1-c1nc2ccc(-n3cccn3)nc2n1-c1ccc(CNC(=O)Cc2ccc(C=O)c(O)c2)cc1` [Compound 35, N-({4-[2-(2-aminopyridin-3-yl)-5-(pyrazol-1-yl)imidazo[4,5-b]pyridin-3-yl]phenyl}methyl)-2-(4-formyl-3-hydroxyphenyl)acetamide] showed an IC50 against AKT2 of 100 to 500 nM. At AKT1 E17K, the “AKT1 E17K IC50: Selectivity vs AKT1 WT” value was 3.4, the “AKT1 E17K IC50: Selectivity vs AKT2” value is 140 and the IC50 is less than 100 nM. The IC50 against AKT1 WT was less than 100 nM.

In turn, `Nc1ncccc1-c1nc2ccc(-c3ccccc3)nc2n1-c1ccc(CCNCCc2ccc(C=O)c(O)c2)cc1` [Compound 36, 4-(2-((4-(2-(2-aminopyridin-3-yl)-5-phenyl-3H-imidazo[4,5-b]pyridin-3-yl)phenethyl)amino)ethyl)-2-hydroxybenzaldehyde] registered an IC50 at AKT2 of 100 to 500 nM. Also, on AKT1 E17K, the “AKT1 E17K IC50: Selectivity vs AKT1 WT” value came out at 2, the “AKT1 E17K IC50: Selectivity vs AKT2” value is recorded as 9.2 and the IC50 was less than 100 nM. Further, the IC50 against AKT1 WT is less than 100 nM.

Regarding `CC(C(=O)NCc1ccc(-n2c(-c3cccnc3N)nc3ccc(-c4ccccc4)nc32)cc1)c1ccc(C=O)c(O)c1` (centres unmarked) [Compound 37], the IC50 against AKT2 was more than 500 nM. Moreover, on AKT1 E17K, the “AKT1 E17K IC50: Selectivity vs AKT1 WT” value is 11, the “AKT1 E17K IC50: Selectivity vs AKT2” value was 180 and the IC50 was less than 100 nM. Also, at AKT1 WT, the IC50 is less than 100 nM.

`Nc1ncccc1-c1nc2ccc(-c3ccccc3)nc2n1-c1ccc(N2CC(NCc3ccc(C=O)c(O)c3)C2)cc1` [Compound 38, 4-(((1-(4-(2-(2-aminopyridin-3-yl)-5-phenyl-3H-imidazo[4,5-b]pyridin-3-yl)phenyl)azetidin-3-yl)amino)methyl)-2-hydroxybenzaldehyde] came in with an IC50 against AKT2 of more than 500 nM. In addition, at AKT1 E17K, the “AKT1 E17K IC50: Selectivity vs AKT1 WT” value is 1.5, the “AKT1 E17K IC50: Selectivity vs AKT2” value is reported as 15 and the IC50 was in the range of 100 to 500 nM. The same compound showed a half-maximal inhibitory concentration (IC50) against AKT1 WT of 100 to 500 nM.

As to `CN(CCc1ccc(-n2c(-c3cccnc3N)nc3ccc(-c4ccccc4)nc32)cc1)Cc1ccc(C=O)c(O)c1` [Compound 39, 4-{[(2-{4-[2-(2-aminopyridin-3-yl)-5-phenylimidazo[4,5-b]pyridin-3-yl]phenyl}ethyl)(methyl)amino]methyl}-2-hydroxybenzaldehyde], the IC50 was 100 to 500 nM against AKT2, less than 100 nM against AKT1 E17K and 100 to 500 nM against AKT1 WT. The “AKT1 E17K IC50: Selectivity vs AKT1 WT” value on AKT1 E17K amounted to 1.5. Further, at AKT1 E17K, the “AKT1 E17K IC50: Selectivity vs AKT2” value is given as 5.2.

Take `Nc1ncccc1-c1nc2ccc(-c3ccccc3)nc2n1-c1ccc(CCNCc2ccc(C=O)c(O)c2F)cc1` [Compound 40, 4-(((4-(2-(2-aminopyridin-3-yl)-5-phenyl-3H-imidazo[4,5-b]pyridin-3-yl)phenethyl)amino)methyl)-3-fluoro-2-hydroxybenzaldehyde]: the IC50 against AKT2 fell in the range of 100 to 500 nM. Also, on AKT1 E17K, the “AKT1 E17K IC50: Selectivity vs AKT1 WT” value stood at 2.2, the “AKT1 E17K IC50: Selectivity vs AKT2” value was determined as 6.7 and the IC50 was less than 100 nM. The IC50 at AKT1 WT was less than 100 nM.

For `CC(C)(C)c1cc(C(=O)NCc2ccc(-n3c(-c4cccnc4N)nc4ccc(-c5ccccc5)nc43)cc2)cc(C=O)c1O` [Compound 41, N-(4-(2-(2-aminopyridin-3-yl)-5-phenyl-3H-imidazo[4,5-b]pyridin-3-yl)benzyl)-3-(tert-butyl)-5-formyl-4-hydroxybenzamide], at AKT2, the IC50 was more than 500 nM. Besides, at AKT1 E17K, the “AKT1 E17K IC50: Selectivity vs AKT1 WT” value amounted to 0.24, the “AKT1 E17K IC50: Selectivity vs AKT2” value is listed as 0.77 and the IC50 was more than 500 nM. Besides, the IC50 on AKT1 WT is more than 500 nM.

At AKT2, `Nc1ncccc1-c1nc2ccc(-c3ccccc3)nc2n1-c1ccc(CNC(=O)CCc2ccc(C=O)c(O)c2)cc1` [Compound 117] showed an IC50 of 100 to 500 nM. On AKT1 E17K, the “AKT1 E17K IC50: Selectivity vs AKT1 WT” value worked out at 0.47, the “AKT1 E17K IC50: Selectivity vs AKT2” value was 2 and the IC50 is 100 to 500 nM.

Turning to `Nc1ncccc1-c1nc2ccc(-c3ccccc3)nc2n1-c1ccc(CNC(=O)c2ccc(C=O)c(O)c2)cc1` [Compound 138, N-(4-(2-(2-aminopyridin-3-yl)-5-phenyl-3H-imidazo[4,5-b]pyridin-3-yl)benzyl)-4-formyl-3-hydroxybenzamide], the “AKT1 E17K IC50: Selectivity vs AKT1 WT” value on AKT1 E17K turned out to be 0.52. For the same compound, the IC50 against AKT1 E17K and against AKT1 WT was less than 100 nM each time.

Usually IC50 stands for the concentration that gives 50% inhibition. Low values mean inhibition by little substance, high ones a need for much substance.
